Test results from US12649748B2, “Wee1 inhibitor and use thereof” (JIANGSU TASLY DIYI PHARMACEUTICAL CO., LTD., priority 2021, dated 2026).
Where two headings read alike, the source gives them in different places.

Legend:
Wee1 protein = molecular target: T1, Wee1 protein (Homo sapiens, UniProt P30291); test: Binding of compound to Wee1 protein and Tracer 178 by TR-FRET; details: inhibitory activity against Wee1 kinase, read-out: IC50 measured value
T1 construct: purchased Thermo Fisher PR7373A
Method: First, solutions of the compounds in different concentration gradients were prepared. […] DMSO was added as a positive control (maximal signal control) and a negative control (minimal signal control) and a final level of 0.25% DMSO was ensured in each reaction well.
WEE1 (Thermo Fisher, Cat #PR7373A) protein in buffer (50 mM Hepes pH 7.5, 10 mM MgCl2, 1 mM EGTA, 0.01% Brij-35) at 15 nM) in different concentrations of compound, and Tracer 178 (Invitrogen, PV5593) and MAb Anti-GST-Eu crypate (Cisbio, 61GSTKLA) were added to 384-well plates (Corning, cat #3574), centrifuged at 1000 rpm for 1 min and the 384-well plates were incubated in a constant temperature shaker for 60 min at 25° C. and 300 rpm. Tracer 178 and MAb Anti-GST-Eu crypate were prepared in buffer (50 mM HEPES pH 7.5, 10 mM MgCl2, 1 mM EGTA, 0.01% Brij-35) with a final reaction concentration of 50 nM for Tracer 178 and a final concentration of 2 nM for MAb Anti-GST-Eu crypate, where the negative control (minimal signal control) used an equal amount of buffer in place of the protein solution.
After incubation, readings were performed using BMG PHERAStar (excitation light at 337 nm and emission light at wavelength values of 620 nm and 665 nm to read the fluorescence signal values). […] The IC50 for inhibition of enzyme activity by the compounds was then calculated using GraphPad Prism 6 and fitted with a log (inhibitor) vs. response-Variable slope mode. The fitting equation was: Y=Bottom+(Top-Bottom)/(1+10^((Log IC50−X)*HillSlope)), where Y represents the percentage of residual enzyme activity known and X represents the known concentration of compound after the logarithm.

H1299 cells = test: Anti-proliferative effect by Cell Titer-Glo, H1299; type: cell-based; details: Homo sapiens, NCI-H1299, 72 h, read-out: IC50 measured value H1299
Method: (§1) Compound solutions of different concentration gradients were prepared. DMSO was dissolved to a concentration of 10 mM test compound and 10 mM reference compound AZD1775, and the compounds were serially diluted in culture medium for a total of 9 dose points, with 2 parallel replicates set at each concentration. The cell growth group without compound was used as a positive control (maximum signal control) and the medium was used as a negative control (minimum signal control), while ensuring that the final level of DMSO in each reaction well was 0.2%. After removing the medium from the 384-well plate, 25 ul of the configured compound at different concentrations was transferred into the well plate and the compound and cells were incubated in the cell incubator at 37° C. with 5% CO2 for 3 days.
(§2) The 384-well plates were removed from the cell incubator and allowed to equilibrate for 1 h to room temperature. 25 ul of Cell Titer-Glo assay was added to each well, lysed on a shaker for 2 min and then read out (Luminescence) using a BMG PHERAStar after 10 min incubation. Calculate the inhibition rate from the luminescence signal: first calculate the average of the positive control (maximum signal control) and the negative control (minimum signal control).
(§3) [formula] to calculate the rate of inhibition of the cells by different concentrations of the compounds. The IC50 of the compound on cell activity inhibition was calculated by fitting a log(inhibitor) vs. response-Variable slope model to GraphPad Prism 6. The fitted equation was: Y=Bottom+(Top−Bottom)/(1+10^((Log IC50−X)*HillSlope)), where Y represents the rate of inhibition and X represents the concentration of the known compound after Log.

MIA Paca-2 cells = test: Anti-proliferative effect by Cell Titer-Glo, MIA Paca-2; type: cell-based; details: Homo sapiens, read-out: IC50 measured value MIA Paca-2
Method: as §1, §2, §3

[1] = H1299 cells, 3 days, Cell Titer-Glo
[2] = 72 h, MIA Paca-2 cells, 3 days, Cell Titer-Glo

T1 sequence (P30291 whole entry): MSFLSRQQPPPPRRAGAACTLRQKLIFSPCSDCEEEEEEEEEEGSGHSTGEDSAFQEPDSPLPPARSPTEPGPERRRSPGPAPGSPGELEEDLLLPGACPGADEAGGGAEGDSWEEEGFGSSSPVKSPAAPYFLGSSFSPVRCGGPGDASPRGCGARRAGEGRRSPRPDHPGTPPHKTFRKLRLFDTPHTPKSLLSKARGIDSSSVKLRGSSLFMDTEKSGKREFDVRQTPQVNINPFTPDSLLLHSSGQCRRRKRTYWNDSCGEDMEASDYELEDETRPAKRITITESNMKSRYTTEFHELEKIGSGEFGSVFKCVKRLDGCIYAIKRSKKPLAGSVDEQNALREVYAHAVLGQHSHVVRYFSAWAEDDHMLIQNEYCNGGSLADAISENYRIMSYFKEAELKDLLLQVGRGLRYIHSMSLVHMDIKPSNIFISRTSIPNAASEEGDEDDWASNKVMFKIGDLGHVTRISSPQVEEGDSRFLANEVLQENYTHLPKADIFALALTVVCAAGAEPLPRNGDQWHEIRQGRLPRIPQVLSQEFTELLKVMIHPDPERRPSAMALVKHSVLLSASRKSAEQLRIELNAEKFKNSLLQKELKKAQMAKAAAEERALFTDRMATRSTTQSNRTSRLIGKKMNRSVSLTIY

Row | Compound | IC50 (Wee1 protein) [nM] | IC50 (H1299 cells; [1]) [nM] | IC50 (H1299 cells) [nM] | IC50 (MIA Paca-2 cells; [2]) [nM] | IC50 (MIA Paca-2 cells; MIA PaCa-2, 72 h) [nM]
1 | CN1CCN(c2ccc(Nc3ncc4cnn(-c5cccc(C(C)(O)C(F)(F)F)n5)c4n3)cc2)CC1 (centres unmarked) [Compound 4] | 10 to 100 | 1000 to 5000 | – | – | –
2 | CN1CCN(c2ccc(Nc3ncc4cnn(-c5cccc(C6(S(C)(=O)=O)CC6)n5)c4n3)cc2)CC1 [Compound 5] | 10 to 100 | – | 1000 to 5000 | – | –
3 | CS(C)(=O)=Nc1cccc(-n2ncc3cnc(Nc4ccc5c(c4)CNCC5)nc32)n1 [Compound 7] | 1 to 10 | 1000 to 5000 | – | – | –
4 | CN1CCc2ccc(Nc3ncc4cnn(-c5cccc(N=S(C)(C)=O)n5)c4n3)cc2C1 [Compound 8] | 1 to 10 | 1000 to 5000 | – | – | –
5 | CN(C)C1CCN(c2ccc(Nc3ncc4cnn(-c5cccc(N=S(C)(C)=O)n5)c4n3)cc2)CC1 [Compound 9] | 1 to 10 | – | 1000 to 5000 | – | –
6 | CN1CCN(c2ccc(Nc3ncc4cnn(-c5cccc(C(C)(C)O)c5)c4n3)cc2)CC1 [Compound 12] | 10 to 100 | 100 to 1000 | – | – | –
7 | CN1CC2CC1CN2c1ccc(Nc2ncc3cnn(-c4cccc(N=S(C)(C)=O)n4)c3n2)cc1 (centres unmarked) [Compound 13] | 1 to 10 | 5000 to 20000 | – | – | –
8 | CS(C)(=O)=Nc1cccc(-n2ncc3cnc(Nc4ccc(CC5C(=O)C6CCN5CC6)cc4)nc32)n1 (centres unmarked) [Compound 15] | 10 to 100 | 1000 to 5000 | – | 100 to 1000 | –
9 | CN1CCN(c2c(Cl)cc(Nc3ncc4cnn(-c5cccc(N=S(C)(C)=O)n5)c4n3)cc2Cl)CC1 [Compound 17] | 10 to 100 | 5000 to 20000 | – | 100 to 1000 | –
10 | CN1CCN(c2ccc(Nc3ncc4cnn(-c5cccc(N=S(C)(C)=O)n5)c4n3)cc2F)CC1 [Compound 19] | 10 to 100 | 1000 to 5000 | – | 100 to 1000 | –
11 | CN1CCN(C2CCN(c3ccc(Nc4ncc5cnn(-c6cccc(N=S(C)(C)=O)n6)c5n4)cc3)CC2)CC1 [Compound 20] | 1 to 10 | 1000 to 5000 | – | 100 to 1000 | –
12 | Cc1cc(Nc2ncc3cnn(-c4cccc(C(C)(C)O)n4)c3n2)ccc1N1CCN(C)CC1 [Compound 21] | 10 to 100 | 1000 to 5000 | – | 100 to 1000 | –
13 | COc1cc(N2CCN(C)CC2)ccc1Nc1ncc2cnn(-c3cccc(N=S(C)(C)=O)n3)c2n1 [Compound 22] | 100 to 1000 | 5000 to 20000 | – | 5000 to 20000 | –
14 | CN1CCN(c2ccc(Nc3ncc4cnn(-c5cccc(N=S(C)(C)=O)n5)c4n3)cc2CO)CC1 [Compound 23] | 1 to 10 | 100 to 1000 | – | 100 to 1000 | –
15 | CN1CCN(c2ccc(Nc3ncc4c(C(F)(F)F)nn(-c5cccc(N=S(C)(C)=O)n5)c4n3)cc2)CC1 [Compound 24] | 10 to 100 | – | 1000 to 5000 | – | 1000 to 5000
16 | CN1CCC2(CC1)CCN(c1ccc(Nc3ncc4cnn(-c5cccc(N=S(C)(C)=O)n5)c4n3)cc1)CC2 [Compound 25] | 1 to 10 | 100 to 1000 | – | 100 to 1000 | –
17 | COc1cc(Nc2ncc3cnn(-c4cccc(N=S(C)(C)=O)n4)c3n2)ccc1N1CCN(C)CC1 [Compound 26] | 1 to 10 | 1000 to 5000 | – | 100 to 1000 | –
18 | CN1CCN(c2ccc(Nc3ncc4c(=O)n(C)n(-c5cccc(N=S(C)(C)=O)n5)c4n3)cc2)CC1 [Compound 27A] | 1 to 10 | 100 to 1000 | – | 100 to 1000 | –
19 | COc1nn(-c2cccc(N=S(C)(C)=O)n2)c2nc(Nc3ccc(N4CCN(C)CC4)cc3)ncc12 [Compound 27B] | 10 to 100 | 1000 to 5000 | – | 100 to 1000 | –
20 | CN1CCN(c2ccc(Nc3ncc4cnn(-c5ccnc(C(C)(C)O)c5)c4n3)cc2)CC1 [Compound 29] | 100 to 1000 | 100 to 1000 | – | 100 to 1000 | –
21 | CN1CCN(c2ccc(Nc3ncc4cnn(-c5cccc(N=S(C)(C)=O)c5)c4n3)cc2)CC1 [Compound 30] | 10 to 100 | – | 1000 to 5000 | – | 100 to 1000

Row | Compound | IC50 (Wee1 protein) [nM] | IC50 (H1299 cells; [1]) [nM] | IC50 (H1299 cells) [nM] | IC50 (MIA Paca-2 cells; [2]) [nM] | IC50 (MIA Paca-2 cells; MIA PaCa-2, 72 h) [nM]
22 | CN1CCN(c2ccc(Nc3ncc4cnn(-c5cncc(N=S(C)(C)=O)c5)c4n3)cc2)CC1 [Compound 31] | 10 to 100 | 1000 to 5000 | – | 100 to 1000 | –
23 | CN1CCN(c2ccc(Nc3ncc4cnn(-c5cncc(C(C)(C)O)c5)c4n3)cc2)CC1 [Compound 32] | 100 to 1000 | 100 to 1000 | – | 100 to 1000 | –
24 | CN1CCN(c2ccc(Nc3ncc4cnn(-c5cccc(N=S(C)(C)=O)c5F)c4n3)cc2)CC1 [Compound 33] | 100 to 1000 | 1000 to 5000 | – | 1000 to 5000 | –
25 | CN1CCN(c2ccc(Nc3ncc4cnn(-c5cc(C(C)(C)O)ccn5)c4n3)cc2)CC1 [Compound 34] | 100 to 1000 | 100 to 1000 | – | 100 to 1000 | –
26 | CN1CCN(c2ccc(Nc3ncc4c(C(F)(F)F)nn(-c5cccc(C(C)(C)O)c5)c4n3)cc2)CC1 [Compound 35] | 100 to 1000 | 5000 to 20000 | – | 5000 to 20000 | –
27 | CN1CCN(c2ccc(Nc3ncc4cnn(-c5ccc6ccncc6c5)c4n3)cc2)CC1 [Compound 36] | 10 to 100 | 1000 to 5000 | – | 1000 to 5000 | –
28 | CN1CCN(c2ccc(Nc3ncc4cnn(-c5ccc6scnc6c5)c4n3)cc2)CC1 [Compound 37] | 10 to 100 | 100 to 1000 | – | 100 to 1000 | –
29 | CN1CCN(c2ccc(Nc3ncc4cnn(-c5ccc6c(c5)C(=O)NCC6)c4n3)cc2)CC1 [Compound 38] | 10 to 100 | 100 to 1000 | – | 100 to 1000 | –
30 | CN1CCN(c2ccc(Nc3ncc4cnn(-c5ccc6c(c5)C(O)CO6)c4n3)cc2)CC1 (centres unmarked) [Compound 39] | 10 to 100 | 1000 to 5000 | – | 100 to 1000 | –
31 | CN1CCN(c2ccc(Nc3ncc4cnn(-c5ccc6cc[nH]c6c5)c4n3)cc2)CC1 [Compound 41] | 10 to 100 | 1000 to 5000 | – | 1000 to 5000 | –
32 | CN1CCN(c2ccc(Nc3ncc4cnn(-c5ccc(F)c(C(C)(C)O)c5)c4n3)cc2)CC1 [Compound 42] | 10 to 100 | 100 to 1000 | – | 100 to 1000 | –
33 | CN1CCN(c2ccc(Nc3ncc4cnn(-c5cccc6c5CCC6(C)O)c4n3)cc2)CC1 (centres unmarked) [Compound 44] | 100 to 1000 | 100 to 1000 | – | 100 to 1000 | –
34 | CN1CCN(c2ccc(Nc3ncc4cnn(-c5ccc6c(c5)C(=O)NC6)c4n3)cc2)CC1 [Compound 46] | 10 to 100 | 1000 to 5000 | – | 100 to 1000 | –
35 | CN1CCN(c2ccc(Nc3ncc4cnn(-c5cccc(C(C)(C)O)c5)c4n3)cn2)CC1 [Compound 47] | 100 to 1000 | 100 to 1000 | – | 100 to 1000 | –
36 | CN1CCN(c2ccc(Nc3ncc4cnn(-c5cccc(-n6ccccc6=O)c5)c4n3)cc2)CC1 [Compound 48] | 10 to 100 | 1000 to 5000 | – | 1000 to 5000 | –
37 | CN1CCN(c2ccc(Nc3ncc4cnn(-c5ccc6c(c5)c(N)nn6C)c4n3)cc2)CC1 [Compound 49] | 100 to 1000 | – | 1000 to 5000 | – | 1000 to 5000
38 | Cc1nc2cccc(-n3ncc4cnc(Nc5ccc(N6CCN(C)CC6)cc5)nc43)c2o1 [Compound 51] | 10 to 100 | 100 to 1000 | – | 100 to 1000 | –
39 | CN1CCN(c2ccc(Nc3ncc4cnn(-c5cc(C(C)(C)O)ccc5F)c4n3)cc2)CC1 [Compound 52] | 100 to 1000 | 100 to 1000 | – | 100 to 1000 | –
40 | CN1CCN(c2ccc(Nc3ncc4cnn(-c5cccc(-n6ccccc6=O)n5)c4n3)cc2)CC1 [Compound 54] | 10 to 100 | 5000 to 20000 | – | 1000 to 5000 | –
41 | CN1CCN(c2ccc(Nc3ncc4cnn(-c5ccc6ncc(C(C)(C)O)n6c5)c4n3)cc2)CC1 [Compound 55] | 10 to 100 | 1000 to 5000 | – | 1000 to 5000 | –
42 | CN1CCN(c2ccc(Nc3ncc4cnn(-c5cccc(N=S(C)(C)=O)c5)c4n3)nc2)CC1 [Compound 56] | 100 to 1000 | 5000 to 20000 | – | 5000 to 20000 | –
